One assay has as its target H3 (h) (Homo sapiens, UniProt Q9Y5N1). Put plainly: competitive radioligand binding assay, H3 (h) (agonist radioligand).
A further assay deals with N neuronal α4β2 (h) (Homo sapiens, UniProt P17787+P43681). Briefly: competitive radioligand binding assay, N neuronal α4β2 (h) (agonist radioligand).
For another assay, the target named is dopamine transporter (h) (Homo sapiens, UniProt Q01959). Briefly: competitive radioligand binding assay, dopamine transporter (h) (antagonist radioligand).
A further assay concerns LnCAP cells. Briefly: Inhibition of DHT-stimulated proliferation of LnCAP cells. It is filed as cell-based, human. The procedure:
(§1) The expression of PSA was measured in the culture medium 24 hours thereafter (FIG. 1). […] The LnCAP cells were cultured for a further 5 days and the number of viable cells was then calculated.
FIG. 2. Inhibition of DHT-stimulated proliferation of LnCAP cells.

The target of a further assay is D2S (h) (Homo sapiens, UniProt P14416). Put plainly: competitive radioligand binding assay, D2S (h) (antagonist radioligand).
The next assay addresses ETA (h) (Homo sapiens, UniProt P25101). Put plainly: competitive radioligand binding assay, ETA (h) (agonist radioligand).
Another assay concerns the target CCK1 (CCKA) (h) (Homo sapiens, UniProt P32238). Briefly: competitive radioligand binding assay, CCK1 (CCKA) (h) (agonist radioligand).
For assay [1], the target named is T1, rat AR ligand-binding domain (Rattus norvegicus, UniProt P15207).
T1 construct: purchased Invitrogen PV4293
Put plainly: Competitive-binding assay vs AR ligand Fluormone (PolarScreen Androgen Receptor Competitor Assay, fluorescence polarization). The procedure: Binding to rat AR ligand-binding domain was measured in competition with fluorescently labeled AR ligand Fluormone™ using a commercial assay kit and fluorescence polarization as a read-out.
FIG. 3. Competitive-binding assay vs AR ligand Fluormone™ (PolarScreen™ Androgen Receptor Competitor Assay, Invitrogen, cat. #PV4293).

For the next assay, the system named is 5-HT (non-selective). Put plainly: competitive radioligand binding assay, 5-HT (non-selective) (agonist radioligand). The following applies: 10 μM.
The target in the next assay is T2, androgen receptors (Homo sapiens, UniProt P10275, T878A).
T2 construct: host or cells: LNCaP
T2 sequence (P10275 1-920 T878A): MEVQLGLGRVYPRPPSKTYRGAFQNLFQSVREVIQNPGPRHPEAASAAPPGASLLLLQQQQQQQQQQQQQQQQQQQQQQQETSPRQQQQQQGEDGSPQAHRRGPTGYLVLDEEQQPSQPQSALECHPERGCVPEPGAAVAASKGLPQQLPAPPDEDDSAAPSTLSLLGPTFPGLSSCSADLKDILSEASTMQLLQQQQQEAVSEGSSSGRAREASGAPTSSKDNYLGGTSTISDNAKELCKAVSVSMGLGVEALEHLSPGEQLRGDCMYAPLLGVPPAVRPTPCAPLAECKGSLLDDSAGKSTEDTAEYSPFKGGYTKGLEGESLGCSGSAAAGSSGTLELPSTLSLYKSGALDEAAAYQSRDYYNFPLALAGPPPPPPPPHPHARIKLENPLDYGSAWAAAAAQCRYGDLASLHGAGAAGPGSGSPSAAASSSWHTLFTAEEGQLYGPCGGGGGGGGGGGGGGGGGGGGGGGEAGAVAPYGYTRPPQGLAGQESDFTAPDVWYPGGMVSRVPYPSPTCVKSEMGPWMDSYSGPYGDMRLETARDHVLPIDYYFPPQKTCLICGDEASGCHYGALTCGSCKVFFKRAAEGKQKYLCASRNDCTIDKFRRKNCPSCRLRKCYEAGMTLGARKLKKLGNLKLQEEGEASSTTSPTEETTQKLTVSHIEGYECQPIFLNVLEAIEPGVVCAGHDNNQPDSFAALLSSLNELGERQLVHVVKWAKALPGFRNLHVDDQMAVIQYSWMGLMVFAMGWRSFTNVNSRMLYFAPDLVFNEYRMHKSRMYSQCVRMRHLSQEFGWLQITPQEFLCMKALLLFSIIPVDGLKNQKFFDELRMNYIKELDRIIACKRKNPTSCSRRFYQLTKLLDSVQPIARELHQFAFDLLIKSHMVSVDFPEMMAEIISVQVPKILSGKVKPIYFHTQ
Put plainly: cell-based. Type of assay: cell-based. The procedure: as §1
FIG. 1. Inhibition of DHT-stimulated PSA expression in LnCAP cells.
These cells are sensitive towards 5-a-dihydrotestosterone (DHT) and in the presence thereof produce cancer markers (PSA). […] Before the experiment, the cells were washed and suspended in the same medium, in which, however, a serum treated with charcoal for removal of hormone traces was used instead of calf serum. The cells (10 000 in total) were embedded into the wells of 96-well plates at 100 μl per well and left for 4 days in an incubator at 37° C. […] The cells were incubated for a further 5 days under the same conditions. Then, samples of the supracellular medium were taken and analyzed for PSA. The test was carried out according to the protocol recommended by the manufacturer of the kit for PSA measurement (Alpha Diagnostic International, USA). After wetting the wells containing PSA antibodies attached to their bottoms, 25 μl of test compounds and 100 μl of PSA antibodies pre-conjugated to horseradish peroxidase were added successively to each well. Following a 30-minute incubation at room temperature, the content of each well was removed, the wells were washed several times, and 100 μl of a peroxidase chromogenic substrate was then added to each well. […] Based on data about the dependence of DHT-related reduction of PSA synthesis on the concentration of test compounds, dose-response curves were plotted to determine IC50 values. Said values were used for calculating apparent inhibition constants (Ki) for compounds of general formula I according to Cheng-Prusoff equation. [Cheng, Y., Prusoff, W. H. “Relationship between the inhibition constant (Ki) and the concentration of inhibitor which causes 50 percent inhibition (IC50) of an enzymatic reaction”. Biochem Pharmacol.

For a further assay, the target named is AT1 (h) (Homo sapiens, UniProt P30556). Put plainly: competitive radioligand binding assay, AT1 (h) (antagonist radioligand).
The next assay concerns GABA transporter. Put plainly: competitive radioligand binding assay, GABA transporter (antagonist radioligand). Conditions: 10 μM.
The target in the next assay is D4.4 (h) (Homo sapiens, UniProt P21917). Put plainly: competitive radioligand binding assay, D4.4 (h) (antagonist radioligand).
For another assay, the system named is opioid (non-selective). Briefly: competitive radioligand binding assay, opioid (non-selective) (antagonist radioligand). The following applies: 10 μM.
Assay [2] relates to Ca2+ channel (L, dihydropyridine site). Briefly: competitive radioligand binding assay, Ca2+ channel (L, dihydropyridine site) (antagonist radioligand). Conditions: 10 μM.
Assay [3] deals with Ca2+channel (L, verapamil site) (phenylalkylamine). Put plainly: competitive radioligand binding assay, Ca2+channel (L, verapamil site) (phenylalkylamine) (antagonist radioligand). Conditions: 10 μM.
Another assay has as its target PR (h) (Homo sapiens, UniProt P06401). Briefly: competitive radioligand binding assay, PR (h) (agonist radioligand).

Structures are written as SMILES.

The inhibition is the drop in the measured response relative to a control, in per cent. As a reminder, the % Inhibition is the relative decrease from the control value, in per cent. As usually defined, the Ki is the dissociation constant of the complex between target and ligand, obtained from inhibition or displacement.

For the compound `CNC(=O)c1ccc(N2C(=S)N(c3ccc(C#N)c(C(F)(F)F)c3)C(=O)[C@]23CCOC3)cc1F` [(R)-1, 4-[(R)-3-(4-cyano-3-trifluoromethyl-phenyl)-4-oxo-2-thioxo-7-oxa-1,3-diaza-spiro[4.4]non-1-yl]-2-fluoro-N-methyl-benzamide], the inhibition at 10 µM was -13% on H3 (h); 0.2% on N neuronal α4β2 (h); -0.3% at dopamine transporter (h); -8.1% on D2S (h); -2.5% on ETA (h); 10.6% at CCK1 (CCKA) (h). In addition, the inhibition at 10 µM at AT1 (h) was 0.5%; on D4.4 (h), -4.7%; on PR (h) it was 66.6%. Moreover, the IC50 in the assay on LnCAP cells (Homo sapiens, LNCaP, 120 h, read-out: IC50, inhibition of DHT-induced cell proliferation) came to 30 nM; in assay [1] (rat AR ligand-binding domain, fluorescence polarization (FIG. 3)), 7900 nM. In addition, the “fold more efficient than III in inhibiting DHT-induced cell proliferation” value in the assay on LnCAP cells (LnCAP cells, versus III) is “around 8 fold”. Moreover, in the assay with LnCAP cells (LnCAP cells, versus Ia), the “fold more efficient than Ia in inhibiting DHT-induced cell proliferation” value is recorded as “around 6 fold”. The “fold more efficient binding than Ia” value in [1] (versus Ia) was “around 2.1 fold”. For the same compound, the “% Inhibition” value in the assay on 5-HT (non-selective) is on record as −8.2%; in the assay with GABA transporter, 9.7%; in the assay with opioid (non-selective), 19.3%; in assay [2], −2.5%; in assay [3] it was 4.0%. At androgen receptors, the “AR antagonistic activity (in words)” value is “even greater AR antagonistic activity”. For the same compound, the “fold more efficient than III in inhibiting DHT-induced PSA expression” value at androgen receptors is on record as “around 1.9 fold”. The “fold more efficient than Ia in inhibiting DHT-induced PSA expression” value on androgen receptors is given as “around 1.5 fold”. The “fold more potent than (S)-stereoisomer (S)-1” value at androgen receptors is “more than 10 fold”. Also, at androgen receptors (read-out: Ki, inhibition of DHT-induced PSA expression), the Ki amounted to 20 nM.

Values taken from US9073874B2, “Cyclic N,N′-diarylthioureas and N,N′-diarylureas-androgen receptor antagonists, anticancer agent, method for preparation and use thereof” (priority 2010, dated 2015).
